This note sets out measurements from patent US12612410B2 (CHILDREN'S HOSPITAL MEDICAL CENTER, priority 2020, dated 2026).

Assay [1] deals with NF-κB. The assay can be described thus: NF-kB SEAP reporter assay in THP-1-Blue NF-κB cells, Pam3CSK4 stimulation. The class given is cell-based. As to conditions: Pam3CSK4 1 ng/mL, read-out: NF-κB Pam3SCK4 IC50. How it is done: (§1) THP-1-Blue NF-xB cells (InvivoGen) carrying a stable integrated NF-κB-inducible secreted embryonic alkaline phosphatase (SEAP) reporter construct were plated at a concentration of 1×10^5 cells per well. The cells were stimulated with Pam3CSK4 (1 ng/mL) or hIL1B (1 ng/mL). After 10-20 minutes, the cells were then treated with vehicle (DMSO) or serial dilutions of the test compounds (10 doses tested for each test compound, with a 1:10 dilution series starting at 1 μM or 3 μM) with a final volume of 200 μL for 24 hours at 37° C. After 24 hours, the cells were centrifuged and 20 μL supernatant was incubated with 180 μL QUANTI-Blue reagent at 37° C. for 30-60 minutes. The levels of NF-κB-induced was measured in a microplate reader at 620 nm.

Assay [2] concerns NF-κB. The assay can be described thus: NF-kB SEAP reporter assay in THP-1-Blue NF-κB cells, hIL1B stimulation. As to conditions: hIL1B 1 ng/mL, read-out: NF-κB IL1B IC50. In kind it is cell-based. The protocol:
as §1
In general terms: In a reporter assay the amount or activity of a reporter protein is the signal.

In a further assay the target is T1, FLT3 (Homo sapiens, UniProt P36888).
T1 sequence (P36888 27-993): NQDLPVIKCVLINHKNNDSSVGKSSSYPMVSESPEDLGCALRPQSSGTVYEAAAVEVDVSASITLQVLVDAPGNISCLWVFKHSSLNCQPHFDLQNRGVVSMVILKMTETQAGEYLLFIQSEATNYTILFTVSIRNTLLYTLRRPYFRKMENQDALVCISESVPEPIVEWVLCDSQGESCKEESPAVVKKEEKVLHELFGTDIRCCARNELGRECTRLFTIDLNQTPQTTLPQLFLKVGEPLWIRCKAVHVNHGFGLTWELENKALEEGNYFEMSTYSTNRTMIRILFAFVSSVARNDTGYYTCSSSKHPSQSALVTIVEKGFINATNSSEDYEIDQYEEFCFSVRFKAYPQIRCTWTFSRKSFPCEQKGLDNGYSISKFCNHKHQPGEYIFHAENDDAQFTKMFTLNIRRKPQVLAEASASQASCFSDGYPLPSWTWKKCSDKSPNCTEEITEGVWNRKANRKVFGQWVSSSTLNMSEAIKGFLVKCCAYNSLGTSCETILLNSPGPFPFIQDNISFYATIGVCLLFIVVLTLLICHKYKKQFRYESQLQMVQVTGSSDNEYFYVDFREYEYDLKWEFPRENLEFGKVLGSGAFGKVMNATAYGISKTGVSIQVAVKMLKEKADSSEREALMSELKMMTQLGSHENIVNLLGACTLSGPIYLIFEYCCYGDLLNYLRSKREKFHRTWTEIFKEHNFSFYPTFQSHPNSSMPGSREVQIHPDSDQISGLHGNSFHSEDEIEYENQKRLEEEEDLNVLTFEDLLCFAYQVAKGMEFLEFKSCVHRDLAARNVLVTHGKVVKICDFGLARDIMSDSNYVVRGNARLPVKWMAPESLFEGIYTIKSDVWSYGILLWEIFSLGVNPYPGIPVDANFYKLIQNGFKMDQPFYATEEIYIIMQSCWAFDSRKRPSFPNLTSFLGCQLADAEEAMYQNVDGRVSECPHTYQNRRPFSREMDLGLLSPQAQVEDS
The assay can be described thus: DiscoverX KINOMEscan competition binding, FLT3. Also on record: purchased Reaction Biology (RBC), HotSpot kinase assay.

The IC50 is the point on the concentration scale where inhibition reaches its midpoint. As for `CC(O)(c1cn2c(-c3cccc(N[C@H]4CNCC[C@@H]4F)n3)cnc2cn1)C(F)(F)F` (single isomer, unassigned) [Compound 80], the IC50 in the assay with NF-κB [1] (24 hours) turned out to be 44 nM; in the assay on NF-κB [2] (24 hours) it was 124 nM.

On to `CC(O)(c1cn2c(-c3cccc(N[C@@H]4CCCNC4)n3)cnc2cn1)C(F)(F)F` (single isomer, unassigned) [Compound 81], for which the IC50 was found to be 24 nM with NF-κB [1] (24 h) and 72 nM in the assay on NF-κB [2] (24 h).

On to `CC(O)(c1cn2c(-c3cccc(N[C@H]4CNCC[C@@H]4F)n3)cnc2cn1)C(F)(F)F` (single isomer, unassigned) [Compound 82], for which the values for the IC50 with NF-κB [1] (24 hours) and with NF-κB [2] (24 hours) were 12 nM and 30 nM, respectively.

As usually defined, the Kd is the free concentration of one partner at which half of the binding sites on the other are occupied at equilibrium, for simple one-to-one binding. In the case of `CC1(c2cn3c(-c4cccc(N[C@H]5CNC[C@@H]5F)n4)cnc3cn2)CC1` [Compound 1, N-((3S,4S)-4-fluoropyrrolidin-3-yl)-6-(6-(1-methylcyclopropyl)imidazo[1,2-a]pyrazin-3-yl)pyridin-2-amine], the results for the IC50 in the assay on NF-κB [1] (24 h) and in the assay on NF-κB [2] (24 h) were 6 nM and 9 nM, respectively. The same compound displayed a Kd at FLT3 of 0.049 nM.

Compound `CC1(c2cn3c(-c4cccc(N[C@@H]5CCNC5)n4)cnc3cn2)CC1` [Compound 3, (R)-6-(6-(1-methylcyclopropyl)imidazo[1,2-a]pyrazin-3-yl)-N-(pyrrolidin-3-yl)pyridin-2-amine] displayed a Kd at FLT3 of 0.056 nM.

In turn, `CC1(c2cn3c(-c4cccc(N[C@H]5CNCC56CC6)n4)cnc3cn2)CC1` [Compound 5, (R)-N-(6-(6-(1-methylcyclopropyl)imidazo[1,2-a]pyrazin-3-yl)pyridin-2-yl)-5-azaspiro[2.4]heptan-7-amine] displayed a Kd on FLT3 of 0.027 nM.

The compound `FC(F)(F)C1(c2cn3c(-c4cccc(N[C@@H]5CCNC5)n4)cnc3cn2)CC1` [Compound 10, (R)-N-(pyrrolidin-3-yl)-6-(6-(1-(trifluoromethyl)cyclopropyl)imidazo[1,2-a]pyrazin-3-yl)pyridin-2-amine] registered a Kd on FLT3 of 0.38 nM.

With `FC(F)c1cn2c(-c3cccc(N[C@H]4CNC[C@@H]4F)n3)cnc2cn1` [Compound 16, 6-(6-(difluoromethyl)imidazo[1,2-a]pyrazin-3-yl)-N-((3S,4S)-4-fluoropyrrolidin-3-yl)pyridin-2-amine], the figures for the IC50 in the assay with NF-κB [1] (24 h) and with NF-κB [2] (24 h) were 11 nM and 5 nM, respectively. The same compound had a Kd on FLT3 of 0.42 nM.

Consider `FC(F)c1cn2c(-c3cccc(N[C@H]4CNCC[C@@H]4F)n3)cnc2cn1` [Compound 25, 6-(6-(difluoromethyl)imidazo[1,2-a]pyrazin-3-yl)-N-((3S,4S)-4-fluoropiperidin-3-yl)pyridin-2-amine], for which the results for the IC50 with NF-κB [1] (24 h) and in the assay on NF-κB [2] (24 h) were 12 nM and 47 nM, respectively. The Kd on FLT3 is 0.13 nM.

Consider `CC(C)(O)c1cn2c(-c3cccc(N[C@@H]4CCCNC4)n3)cnc2cn1` [Compound 30, (R)-2-(3-(6-(piperidin-3-ylamino)pyridin-2-yl)imidazo[1,2-a]pyrazin-6-yl)propan-2-ol], for which the IC50 with NF-κB [1] (24 hours) is 28 nM; with NF-κB [2] (24 hours), 40 nM. The compound further returned a Kd on FLT3 of 1.5 nM.

Consider `CC(C)(O)c1cn2c(-c3cccc(N[C@H]4CNCC[C@@H]4F)n3)cnc2cn1` [Compound 31, 2-(3-(6-(((3S,4S)-4-fluoropiperidin-3-yl)amino)pyridin-2-yl)imidazo[1,2-a]pyrazin-6-yl)propan-2-ol], for which the concentration for half-maximal inhibition (IC50) with NF-κB [1] (24 h) was 37 nM; in the assay on NF-κB [2] (24 h), 44 nM. In addition, the Kd at FLT3 turned out to be 0.55 nM.

Consider `CC(C)(O)c1cn2c(-c3nc(N[C@H]4CNCC[C@@H]4F)c(F)cc3F)cnc2cn1` [Compound 35, 2-(3-(3,5-difluoro-6-(((3S,4S)-4-fluoropiperidin-3-yl)amino)pyridin-2-yl)imidazo[1,2-a]pyrazin-6-yl)propan-2-ol], for which the IC50 in the assay with NF-κB [1] (24 h) came to 23 nM; in the assay on NF-κB [2] (24 h), 88 nM.

`FC(F)(F)COc1cn2c(-c3cccc(N[C@@H]4CCNC4)n3)cnc2cn1` [Compound 38, (R)-N-(pyrrolidin-3-yl)-6-(6-(2,2,2-trifluoroethoxy)imidazo[1,2-a]pyrazin-3-yl)pyridin-2-amine] displayed a Kd at FLT3 of 0.61 nM.

For the compound `F[C@H]1CNC[C@@H]1Nc1cccc(-c2cnc3cnc(C4CC4)cn23)n1` [Compound 50, 6-(6-cyclopropylimidazo[1,2-a]pyrazin-3-yl)-N-((3S,4S)-4-fluoropyrrolidin-3-yl)pyridin-2-amine], the half-inhibitory concentration (IC50) with NF-κB [1] (24 h) was 9 nM; in the assay with NF-κB [2] (24 h), 11 nM. On FLT3, this compound came in with a Kd of 0.062 nM.

As for `F[C@H]1CCNC[C@@H]1Nc1cccc(-c2cnc3cnc(C4CC4)cn23)n1` [Compound 51, 6-(6-cyclopropylimidazo[1,2-a]pyrazin-3-yl)-N-((3S,4S)-4-fluoropiperidin-3-yl)pyridin-2-amine], the values for the IC50 in the assay with NF-κB [1] (24 h) and in the assay on NF-κB [2] (24 h) were 20 nM and 57 nM, respectively.

`Cn1cc(-c2cn3c(-c4cccc(N[C@H]5CNC[C@@H]5F)n4)cnc3cn2)cn1` [Compound 52, N-((3S,4S)-4-fluoropyrrolidin-3-yl)-6-(6-(1-methyl-1H-pyrazol-4-yl)imidazo[1,2-a]pyrazin-3-yl)pyridin-2-amine] displayed an equilibrium dissociation constant (Kd) on FLT3 of 0.035 nM.

Regarding `O=S1(=O)CCCN1c1cn2c(-c3cccc(N[C@H]4CNCC[C@@H]4F)n3)cnc2cn1` [Compound 97, 2-(3-(6-(((3S,4S)-4-fluoropiperidin-3-yl)amino)pyridin-2-yl)imidazo[1,2-a]pyrazin-6-yl)isothiazolidine 1,1-dioxide], the IC50 was 83 nM with NF-κB [1] (24 hours) and 164 nM with NF-κB [2] (24 hours).

Consider `O=C1CCCN1c1cn2c(-c3nc(N[C@H]4CNCC[C@@H]4F)c(F)cc3F)cnc2cn1` [Compound 107, 1-[3-[3,5-difluoro-6-[[(3S,4S)-4-fluoro-3-piperidyl]amino]-2-pyridyl]imidazo[1,2-a]pyrazin-6-yl]pyrrolidin-2-one], for which the IC50 came out at 37 nM in the assay on NF-κB [1] (24 hours) and 357 nM with NF-κB [2] (24 hours).

As to `O=C1NCCN1c1cn2c(-c3cccc(N[C@H]4CNCC[C@@H]4F)n3)cnc2cn1` [Compound 118, 1-(3-(6-(((3S,4S)-4-fluoropiperidin-3-yl)amino)pyridin-2-yl)imidazo[1,2-a]pyrazin-6-yl)imidazolidin-2-one], the IC50 is 101 nM in the assay on NF-κB [1] (24 h) and 406 nM with NF-κB [2] (24 h).

Consider `O=C1CCCN1c1cn2c(-c3cccc(N[C@H]4CNCC[C@@H]4F)n3)cnc2cn1` [Compound 119, 1-(3-(6-(((3S,4S)-4-fluoropiperidin-3-yl)amino)pyridin-2-yl)imidazo[1,2-a]pyrazin-6-yl)pyrrolidin-2-one], for which the IC50 with NF-κB [1] (24 hours) is 56 nM; in the assay on NF-κB [2] (24 hours) it was 1290 nM.

Turning to `O=C1CCCN1c1cn2c(-c3cccc(N[C@H]4CNC[C@@H]4F)n3)cnc2cn1` [Compound 121, 1-(3-(6-(((3S,4S)-4-fluoropyrrolidin-3-yl)amino)pyridin-2-yl)imidazo[1,2-a]pyrazin-6-yl)pyrrolidin-2-one], the IC50 in the assay on NF-κB [1] (24 h) is 54 nM; in the assay on NF-κB [2] (24 h), 76 nM.

Take `CC(C)(C)c1cn2c(-c3cccc(N[C@@H]4CCCNC4)n3)cnc2cn1` [Compound 129, (R)-6-(6-(tert-butyl)imidazo[1,2-a]pyrazin-3-yl)-N-(piperidin-3-yl)pyridin-2-amine]: the figures for the IC50 with NF-κB [1] (24 hours) and with NF-κB [2] (24 hours) were 11 nM and 70 nM, respectively.
